Measured values from patent US20250277012A1 (Protagonist Therapeutics, Inc., priority 2021, published 2025).
Where two headings read alike, the source gives them in different places. Starred links: 1 amine or outer side, 2 acyl side, 3 side chain; linkers in the order of their positions; H or OH if unused. Positions of bridges follow the written chain, without caps; N, C: chain ends. Non-standard residues stand in square brackets, D forms with d. Residues, ends and D or L forms follow the SMILES beside them. Groups on a side chain read outwards from the residue. *: point of attachment. X1 = C[N+](C)(CCNC(=O)CCCCCCCCCCCCCCCCC(=O)O)CC(=O)*; X5 = CCCCCCCCCCCCCCCC(=O)NCC[N+](C)(C)CC(=O)*; C18 diacid = O=C(O)CCCCCCCCCCCCCCCCC(=O)*; Dip = N[C@H](C(=O)O)C(c1ccccc1)c1ccccc1; γGlu = O=C(O)[C@H](CCC(=O)[*:2])N[*:1]; NMeY = CN[C@@H](Cc1ccc(O)cc1)C(=O)O; Palmitoyl = CCCCCCCCCCCCCCCC(=O)*; β3hF = N[C@H](CC(=O)O)Cc1ccccc1; NMeK = CN[C@@H](CCCCN)C(=O)O; αMeK = C[C@](N)(CCCCN)C(=O)O; Isovaleryl = CC(C)CC(=O)*; hCys = N[C@@H](CCS)C(=O)O; Dap = NC[C@H](N)C(=O)O; AEEA = NCCOCCOCC(=O)O; Ahx = NCCCCCC(=O)O

Experiments:
[1] = target: T1, ferroportin (Homo sapiens, UniProt Q9NP59); assay: FPN activity assay: ferroportin-GFP internalization/degradation in HEK293 cells; type: cell-based; parameters: expressed in transfected cells; settings: read-out: FPN IC50
T1 sequence (Q9NP59 1-571): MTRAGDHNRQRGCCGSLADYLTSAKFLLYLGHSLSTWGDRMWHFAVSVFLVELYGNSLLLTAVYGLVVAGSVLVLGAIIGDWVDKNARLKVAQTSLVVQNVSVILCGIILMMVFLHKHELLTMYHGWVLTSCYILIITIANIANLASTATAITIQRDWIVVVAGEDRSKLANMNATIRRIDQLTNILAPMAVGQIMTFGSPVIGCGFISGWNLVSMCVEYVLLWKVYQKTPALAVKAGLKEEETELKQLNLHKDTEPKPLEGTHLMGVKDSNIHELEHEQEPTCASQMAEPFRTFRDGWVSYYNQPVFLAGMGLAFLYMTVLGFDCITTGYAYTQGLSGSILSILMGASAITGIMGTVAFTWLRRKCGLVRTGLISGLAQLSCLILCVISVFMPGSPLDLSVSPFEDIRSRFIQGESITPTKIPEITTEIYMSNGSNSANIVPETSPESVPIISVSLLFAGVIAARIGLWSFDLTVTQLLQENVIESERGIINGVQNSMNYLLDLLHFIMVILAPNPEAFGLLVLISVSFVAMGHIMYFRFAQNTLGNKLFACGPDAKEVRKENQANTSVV
Description: Following internalization, the ferroporin protein is degraded.
A retro inverse peptide is a peptide with a reversed sequence in all D amino acids. An example is that Hy-Glu-Thr-His-NH2 becomes Hy-DHis-DThr-DGlu-NH2. The EC50 of these reference compounds for ferroportin internalization/degradation was determined according to the FPN activity assay described above. These peptides served as control standards.

[2] = target: T1, ferroportin; assay: T47D cell-based ferroportin internalization assay in presence of mouse serum albumin (MSA); parameters: a human breast carcinoma adherent cell line which endogenously expresses ferroportin; host or cells: T47D
Summary of the method: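 Peptide potency for inducing ferroportin internalization was measured in T47D cells in the presence of serum albumin. Cells grown in RPMI with fetal bovine serum were seeded in 96-well plates at 80-100 k cells per well in 100 ul and rested overnight. Dilution series of test peptides were preincubated 30 min at room temperature, then added to the cells after the medium was aspirated.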

[3] = ferroportin-GFP HEK293 cells, at least 18 hours
[4] = T47D cells, 0.5% mouse serum albumin, 1 hr incubation
[5] = Table 6E, ferroportin-GFP internalization/degradation, at least 18 hours incubation
[6] = Table 6E, T47D internalization assay with MSA
[7] = ferroportin-GFP internalization/degradation, HEK293 cells, Table 6E
[8] = T47D internalization assay in presence of mouse serum albumin (MSA), Table 6E

SMILES	DC50 [1, 3] [nM]	IC50 [2, 4] [nM]	DC50 [1, 7] [nM]	IC50 [2, 8] [nM]	also measured
CC[C@H](C)[C@H](NC(=O)[C@@H]1CSSC[C@H](NC(=O)[C@@H](NC(=O)[C@H](Cc2c[nH]cn2)NC(=O)[C@@H](NC(=O)[C@H](CCC(=O)O)NC(=O)CC(C)C)[C@@H](C)O)C(c2ccccc2)c2ccccc2)C(=O)N1)C(=O)N[C@@H](CCCCNC(=O)COCCOCCNC(=O)COCCOCCNC(=O)CC[C@H](NC(=O)CCCCCCCCCCCCCCCCC(=O)O)C(=O)O)C(=O)N[C@H](CC(=O)N[C@H](CCCCN)C(N)=O)Cc1ccccc1 [Compd 30] (Isovaleryl-ETH[Dip]CCIK([AEEA-AEEA-γGlu-C18 diacid])[β3hF][dK]-NH2; disulfide 5-6)	10 to 100	10 to 100			
CCCCCCCCCCCCCCCC(=O)NCC[N+](C)(C)CC(=O)NCCCC[C@H]1C(=O)N[C@@H](C(c2ccccc2)c2ccccc2)C(=O)N[C@@H](C(N)=O)CCCCNC(=O)CC[C@H](NC(=O)CC(C)C)C(=O)N[C@@H]([C@@H](C)O)C(=O)N[C@@H](Cc2c[nH]cn2)C(=O)N[C@@H](C(c2ccccc2)c2ccccc2)C(=O)N2CCC[C@H]2C(=O)N[C@H]2CSSC[C@H](NC2=O)C(=O)N1C [compound 143] (Isovaleryl-ETH[Dip]PCC[NMeK](X5)[Dip][dK]-NH2; lactam 1-10; disulfide 6-7)					DC50 [1, 5]: 10 to 100 nM; IC50 [2, 6]: 1 to 10 nM
COC(=O)CC[C@H](NC(=O)CC(C)C)C(=O)N[C@H](C(=O)N[C@@H](Cc1c[nH]cn1)C(=O)N[C@H](C(=O)N1CCC[C@H]1C(=O)N[C@H]1CSSC[C@@H](C(=O)N[C@@](C)(CCCCNC(=O)COCCOCCNC(=O)COCCOCCNC(=O)[C@H](CN)NC(=O)CCCCCCCCCCCCCCCCC(=O)O)C(=O)N[C@H](CC(=O)N[C@H](CCCCN)C(N)=O)Cc2ccccc2)NC1=O)C(c1ccccc1)c1ccccc1)[C@@H](C)O [compound 301] (Isovaleryl-E(OMe)TH[Dip]PCC[αMeK]([AEEA-AEEA-Dap-C18 diacid])[β3hF][dK]-NH2; disulfide 6-7)			10 to 100	10 to 100	
CC(C)CC(=O)N[C@@H](CCC(=O)O)C(=O)N[C@H](C(=O)N[C@@H](Cc1c[nH]cn1)C(=O)N[C@H](C(=O)N1CCC[C@H]1C(=O)N[C@H]1CSSC[C@@H](C(=O)N(C)[C@@H](CCCCNC(=O)COCCOCCNC(=O)COCCOCCNC(=O)[C@H](CN)NC(=O)CCCCCCCCCCCCCCCCC(=O)O)C(=O)N[C@H](CC(=O)N[C@H](CCCCN)C(=O)N(C)[C@@H](Cc2ccc(O)cc2)C(N)=O)Cc2ccccc2)NC1=O)C(c1ccccc1)c1ccccc1)[C@@H](C)O [compound 259] (Isovaleryl-ETH[Dip]PCC[NMeK]([AEEA-AEEA-Dap-C18 diacid])[β3hF][dK][NMeY]-NH2; disulfide 6-7)			10 to 100	10 to 100	
CC(C)CC(=O)N[C@@H](CCC(=O)O)C(=O)N[C@H](C(=O)N[C@@H](Cc1c[nH]cn1)C(=O)N[C@H](C(=O)N1CCC[C@H]1C(=O)N[C@H]1CSSC[C@@H](C(=O)N(C)[C@@H](CCCCNC(=O)COCCOCCNC(=O)COCCOCCNC(=O)[C@H](CN)NC(=O)CCCCCCCCCCCCCCCCC(=O)O)C(=O)N[C@H](C(=O)N[C@H](CCCCN)C(N)=O)C(c2ccccc2)c2ccccc2)NC1=O)C(c1ccccc1)c1ccccc1)[C@@H](C)O [compound 293] (Isovaleryl-ETH[Dip]PCC[NMeK]([AEEA-AEEA-Dap-C18 diacid])[Dip][dK]-NH2; disulfide 6-7)			1 to 10	10 to 100	
COC(=O)CC[C@H](NC(=O)CC(C)C)C(=O)N[C@H](C(=O)N[C@@H](Cc1c[nH]cn1)C(=O)N[C@H](C(=O)N1CCC[C@H]1C(=O)N[C@H]1CSSC[C@@H](C(=O)N[C@@H](CCCCNC(=O)COCCOCCNC(=O)COCCOCCNC(=O)[C@H](CN)NC(=O)CCCCCCCCCCCCCCCCC(=O)O)C(=O)N[C@H](CC(=O)N[C@H](CCCCN)C(N)=O)Cc2ccccc2)NC1=O)C(c1ccccc1)c1ccccc1)[C@@H](C)O [Compd ID 42, Isovaleric Acid-[Glu_OMe]-T-H-[Dpa]-P-[Cys]-[Cys]-[Lys(1PEG2_1PEG2_Dap_C18_Diacid)]-[bhPhe]-[(D)Lys]-NH2] (Isovaleryl-E(OMe)TH[Dip]PCCK([AEEA-AEEA-Dap-C18 diacid])[β3hF][dK]-NH2; disulfide 6-7)	10 to 100	10 to 100			
CC(C)CC(=O)N[C@@H](CCC(=O)O)C(=O)N[C@H](C(=O)N[C@@H](Cc1c[nH]cn1)C(=O)N[C@H](C(=O)N1CCC[C@H]1C(=O)N[C@H]1CSSC[C@@H](C(=O)N[C@@H](CCCCNC(=O)COCCOCCNC(=O)COCCOCCNC(=O)CCCCCNC(=O)CCCCCCCCCCCCCCCCC(=O)O)C(=O)N[C@H](CC(=O)N[C@H](CCCCN)C(N)=O)Cc2ccccc2)NC1=O)C(c1ccccc1)c1ccccc1)[C@@H](C)O [Compd 22] (Isovaleryl-ETH[Dip]PCCK([AEEA-AEEA-Ahx-C18 diacid])[β3hF][dK]-NH2; disulfide 6-7)	10 to 100	10 to 100			
CC(C)CC(=O)N[C@@H](CCC(=O)O)C(=O)N[C@H](C(=O)N[C@@H](Cc1c[nH]cn1)C(=O)N[C@H](C(=O)N1CCC[C@H]1C(=O)N[C@H]1CSSC[C@@H](C(=O)N[C@@H](CCCCNC(=O)COCCOCCNC(=O)COCCOCCNC(=O)[C@H](CN)NC(=O)CCCCCCCCCCCCCCCCC(=O)O)C(=O)N[C@H](CC(=O)N[C@H](CCCCN)C(N)=O)Cc2ccccc2)NC1=O)C(c1ccccc1)c1ccccc1)[C@@H](C)O [Compd 41] (Isovaleryl-ETH[Dip]PCCK([AEEA-AEEA-Dap-C18 diacid])[β3hF][dK]-NH2; disulfide 6-7)	10 to 100	10 to 100			
COC(=O)CCC(CCCC(C)C)C(=O)N[C@H](C(=O)N[C@@H](Cc1c[nH]cn1)C(=O)N[C@H](C(=O)N1CCC[C@H]1C(=O)N[C@H]1CSSC[C@@H](C(=O)N(C)[C@@H](CCCCNC(=O)CCCCCNC(=O)C[N+](C)(C)CCNC(=O)CCCCCCCCCCCCCCCCC(=O)O)C(=O)N[C@H](C(=O)N[C@H](CCCCN)C(N)=O)C(c2ccccc2)c2ccccc2)NC1=O)C(c1ccccc1)c1ccccc1)[C@@H](C)O (single isomer, unassigned) [compound 137]					DC50 [1, 5]: 10 to 100 nM; IC50 [2, 6]: 10 to 100 nM
CCCCCCCCCCCCCCCC(=O)NCCCCCC(=O)NCCCC[C@@H](C(=O)N[C@H](C(=O)N[C@H](CCCCN)C(N)=O)C(c1ccccc1)c1ccccc1)N(C)C(=O)[C@@H]1CSSC[C@H](NC(=O)[C@@H]2CCCN2C(=O)[C@@H](NC(=O)[C@H](Cc2cnc[nH]2)NC(=O)[C@@H](NC(=O)[C@H](CCC(=O)O)NC(=O)CC(C)C)[C@@H](C)O)C(c2ccccc2)c2ccccc2)C(=O)N1 [compound 196] (Isovaleryl-ETH[Dip]PCC[NMeK]([Ahx-Palmitoyl])[Dip][dK]-NH2; disulfide 6-7)					DC50 [1, 5]: 1 to 10 nM; IC50 [2, 6]: 1 to 10 nM

Second part, led by results:

DC50 [1, 3] [nM]	IC50 [2, 4] [nM]	DC50 [1, 7] [nM]	IC50 [2, 8] [nM]	SMILES	also measured
		10 to 100	10 to 100	COC(=O)CC[C@H](NC(=O)CC(C)C)C(=O)N[C@H](C(=O)N[C@@H](Cc1c[nH]cn1)C(=O)N[C@H](C(=O)N1CCC[C@H]1C(=O)N[C@H]1CSSC[C@@H](C(=O)N[C@@H](CCCCNC(=O)CCCCCNC(=O)C[N+](C)(C)CCNC(=O)CCCCCCCCCCCCCCCCC(=O)O)C(=O)N[C@H](CC(=O)N[C@H](CCCCN)C(N)=O)Cc2ccccc2)NC1=O)C(c1ccccc1)c1ccccc1)[C@@H](C)O [compound 311] (Isovaleryl-E(OMe)TH[Dip]PCCK([Ahx-X1])[β3hF][dK]-NH2; disulfide 6-7)	
10 to 100	10 to 100			CC[C@H](C)[C@H](NC(=O)[C@@H]1CSSC[C@H](NC(=O)[C@@H](NC(=O)[C@H](Cc2c[nH]cn2)NC(=O)[C@@H](NC(=O)[C@H](CCC(=O)O)NC(=O)CC(C)C)[C@@H](C)O)C(c2ccccc2)c2ccccc2)C(=O)N1)C(=O)N[C@@H](CCCCNC(=O)COCCOCCNC(=O)COCCOCCNC(=O)CCCCCNC(=O)CCCCCCCCCCCCCCCCC(=O)O)C(=O)N[C@H](CC(=O)N[C@H](CCCCN)C(N)=O)Cc1ccccc1 [Compd 21] (Isovaleryl-ETH[Dip]CCIK([AEEA-AEEA-Ahx-C18 diacid])[β3hF][dK]-NH2; disulfide 5-6)	
		10 to 100	10 to 100	CC(C)CC(=O)N[C@@H](CCC(=O)O)C(=O)N[C@H](C(=O)N[C@@H](Cc1c[nH]cn1)C(=O)N[C@H](C(=O)N1CCC[C@H]1C(=O)N[C@H]1CSSCC[C@@H](C(=O)N(C)[C@@H](CCCCNC(=O)COCCOCCNC(=O)COCCOCCNC(=O)[C@H](CN)NC(=O)CCCCCCCCCCCCCCCCC(=O)O)C(=O)N[C@H](CC(=O)N[C@H](CCCCN)C(N)=O)Cc2ccccc2)NC1=O)C(c1ccccc1)c1ccccc1)[C@@H](C)O [compound 270] (Isovaleryl-ETH[Dip]PC[hCys][NMeK]([AEEA-AEEA-Dap-C18 diacid])[β3hF][dK]-NH2; disulfide 6-7)	
